These results are taken from paper PMC6272887, “Discovery of Potent c-MET Inhibitors with New Scaffold Having Different Quinazoline, Pyridine and Tetrahydro-Pyridothienopyrimidine Headgroups” (Molecules, 2016).

One data set addresses T1, EGFR (Homo sapiens, UniProt P00533).
T1 construct: purchased Cell Signaling Technology, Inc
The data set is described as follows: In vitro kinase assay (HTScan EGFR Kinase Assay Kit). It counts as biochemical. The settings on record: for IC50: ATP 10 µM, read-out: Enzyme, IC50, µM EGFR; for selectivity against EGFR: relative to c-MET. The method, then: (§1) In vitro kinase inhibitory ability was determined using HTScan MET Kinase Assay Kit, HTScan VEGF Receptor 2 Kinase Assay Kit, HTScan c-Kit Kinase Assay Kit, HTScan PDGF Receptor β Kinase Assay Kit and HTScan EGFR Kinase Assay Kit(purchased from Cell Signaling Technology, Inc. Danvers, MA, USA) by colorimetric ELISA assay according to the manufacturer’s instructions. Briefly, reaction cocktail containing recombinant human MET kinase or other kinases were incubated with various concentrations of tested compounds or DMSO (0.1%) for 5 min at room temperature, and then ATP/substrate peptide cocktail was added to the pre-incubated reaction cocktail. After incubation at room temperature for 30 min, the reaction was stopped and transferred to a 96-wellstreptavidin-coated plate, and incubated for 1 h at room temperature. Primary antibody (phosphorylated tyrosine monoclonal antibody (pTyr-100), 1:1000 in PBS/T with 1% bovine serum albumin (BSA)) was added into per well until the wells were washed thrice with PBS/T. After incubated at room temperature for 1 h, phosphorylation of the substrate was monitored with HRP-labeled anti-mouse IgG antibody (1:500 in PBS/T with 1% BSA), followed by a chromogenic reaction. Finally, the kinase assay was detected at 450 nm with microplate reader. The reaction processed with only DMSO (0.1%) served as a vehicle control. […] The kinase assay was performed thrice independently.

Data set [1] deals with HeLa (human cervical carcinoma). In words: Cell proliferative assay (MTT), HeLa. It counts as cell-based. As to conditions: Homo sapiens, HeLa, HeLa cells, read-out: Proliferative Inhibition (IC50, µM) HeLa. The method, then: (§2) The anti-proliferative activities of synthesized compounds against HeLa, Hep-G2 and MCF-7 cells were evaluated by MTT assay. HeLa cells were grown to log phase in RPMI 1640 medium supplemented with 10% fetal bovine serum. Hep-G2 and MCF-7 cells were grown to log phase in DMEM medium supplemented with 10% fetal bovine serum. After diluting to […] with the complete medium, 100 µL of the obtained cell suspension was added to each well of 96-well culture plates. The subsequent incubation was permitted at 37 °C, 5% CO2 atmosphere for 48 h before the anti-proliferative assessments. Tested samples at pre-set concentrations were added to 6 wells. Before the anti-proliferative assessments, 20 µL of PBS containing 2.5 mg∙mL^−1 of MTT was added to each well. Four h later, 100 µL extraction solution (DMSO) was added to each well and the optical density was measured at a wavelength of 570 nm on an ELISA microplate reader.

Data set [2] concerns MCF-7 (human breast cancer). The data set is described as follows: Cell proliferative assay (MTT), MCF-7. It counts as cell-based. The settings on record: Homo sapiens, MCF7, MTT assay, MCF-7 cells; read-out: Proliferative Inhibition (IC50, µM) MCF-7. The method, then: as §2
The target in data set [3] is T2, c-MET (Homo sapiens, UniProt P08581).
T2 construct: purchased Cell Signaling Technology, Inc
T2 sequence (P08581 25-1390): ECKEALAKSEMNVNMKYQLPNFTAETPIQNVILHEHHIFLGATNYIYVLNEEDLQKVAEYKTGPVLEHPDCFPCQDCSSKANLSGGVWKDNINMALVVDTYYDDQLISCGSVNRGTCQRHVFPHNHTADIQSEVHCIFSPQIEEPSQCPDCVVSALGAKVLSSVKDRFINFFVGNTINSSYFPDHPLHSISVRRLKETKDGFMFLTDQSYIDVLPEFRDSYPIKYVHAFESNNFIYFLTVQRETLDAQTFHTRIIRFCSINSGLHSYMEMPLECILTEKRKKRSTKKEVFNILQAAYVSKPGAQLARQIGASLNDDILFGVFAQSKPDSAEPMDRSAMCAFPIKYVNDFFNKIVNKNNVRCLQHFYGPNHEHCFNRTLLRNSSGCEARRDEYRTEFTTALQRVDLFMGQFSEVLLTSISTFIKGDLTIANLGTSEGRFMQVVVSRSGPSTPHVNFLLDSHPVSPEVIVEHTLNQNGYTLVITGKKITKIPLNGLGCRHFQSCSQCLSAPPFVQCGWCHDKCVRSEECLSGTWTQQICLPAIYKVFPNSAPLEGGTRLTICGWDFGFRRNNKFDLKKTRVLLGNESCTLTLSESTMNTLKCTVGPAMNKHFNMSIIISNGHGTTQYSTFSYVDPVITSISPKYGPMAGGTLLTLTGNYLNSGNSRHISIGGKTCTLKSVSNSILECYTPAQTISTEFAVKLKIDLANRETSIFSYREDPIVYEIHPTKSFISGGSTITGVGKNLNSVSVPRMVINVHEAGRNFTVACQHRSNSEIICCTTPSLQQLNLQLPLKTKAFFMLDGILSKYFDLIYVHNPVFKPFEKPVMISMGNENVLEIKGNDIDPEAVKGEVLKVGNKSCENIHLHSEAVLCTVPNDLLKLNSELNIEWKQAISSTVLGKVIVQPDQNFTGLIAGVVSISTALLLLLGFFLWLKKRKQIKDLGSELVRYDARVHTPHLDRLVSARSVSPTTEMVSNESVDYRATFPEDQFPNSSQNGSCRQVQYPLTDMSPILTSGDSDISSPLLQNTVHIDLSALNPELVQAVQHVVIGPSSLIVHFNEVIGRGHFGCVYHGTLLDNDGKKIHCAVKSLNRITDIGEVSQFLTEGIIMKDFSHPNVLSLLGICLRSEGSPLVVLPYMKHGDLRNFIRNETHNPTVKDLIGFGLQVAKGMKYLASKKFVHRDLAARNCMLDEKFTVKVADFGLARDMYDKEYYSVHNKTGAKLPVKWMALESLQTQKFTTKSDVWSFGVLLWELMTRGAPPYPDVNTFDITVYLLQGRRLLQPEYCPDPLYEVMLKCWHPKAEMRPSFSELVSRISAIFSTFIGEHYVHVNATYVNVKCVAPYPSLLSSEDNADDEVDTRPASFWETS
The data set is described as follows: In vitro kinase assay (HTScan MET Kinase Assay Kit, colorimetric ELISA). It counts as biochemical. As to conditions: ATP 10 µM; three independent determinations; read-out: Enzymatic Inhibition (IC50, µM) c-MET. The method, then: as §1

Another data set deals with T3, PDGFR-b (Homo sapiens, UniProt P09619).
T3 construct: purchased Cell Signaling Technology, Inc
T3 sequence (P09619 33-1106): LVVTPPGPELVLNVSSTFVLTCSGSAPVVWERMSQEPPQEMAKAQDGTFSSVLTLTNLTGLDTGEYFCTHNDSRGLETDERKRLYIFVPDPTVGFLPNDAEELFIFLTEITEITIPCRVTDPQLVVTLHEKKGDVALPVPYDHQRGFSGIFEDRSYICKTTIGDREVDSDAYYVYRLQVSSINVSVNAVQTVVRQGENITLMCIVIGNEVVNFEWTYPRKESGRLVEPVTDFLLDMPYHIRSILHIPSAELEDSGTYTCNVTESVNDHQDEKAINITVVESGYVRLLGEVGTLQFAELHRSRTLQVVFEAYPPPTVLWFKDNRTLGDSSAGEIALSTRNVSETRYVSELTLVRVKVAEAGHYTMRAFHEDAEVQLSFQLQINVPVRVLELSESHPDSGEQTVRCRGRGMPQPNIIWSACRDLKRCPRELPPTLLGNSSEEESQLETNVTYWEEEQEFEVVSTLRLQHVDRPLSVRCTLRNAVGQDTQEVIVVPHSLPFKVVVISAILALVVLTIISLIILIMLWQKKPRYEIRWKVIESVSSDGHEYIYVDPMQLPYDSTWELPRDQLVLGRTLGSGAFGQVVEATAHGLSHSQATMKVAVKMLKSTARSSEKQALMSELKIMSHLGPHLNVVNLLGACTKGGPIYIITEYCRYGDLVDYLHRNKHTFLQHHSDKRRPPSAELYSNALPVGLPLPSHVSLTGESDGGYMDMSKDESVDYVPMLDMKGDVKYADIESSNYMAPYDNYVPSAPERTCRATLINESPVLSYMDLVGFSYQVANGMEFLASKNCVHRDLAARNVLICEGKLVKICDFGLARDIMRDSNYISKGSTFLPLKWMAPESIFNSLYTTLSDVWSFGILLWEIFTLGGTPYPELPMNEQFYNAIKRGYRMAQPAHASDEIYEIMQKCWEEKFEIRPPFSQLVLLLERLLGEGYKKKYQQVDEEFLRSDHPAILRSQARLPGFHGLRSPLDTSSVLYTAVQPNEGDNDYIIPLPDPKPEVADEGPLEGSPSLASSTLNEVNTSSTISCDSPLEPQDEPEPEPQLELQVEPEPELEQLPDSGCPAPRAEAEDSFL
The data set is described as follows: In vitro kinase assay (HTScan PDGF Receptor β Kinase Assay Kit). It counts as biochemical. As to conditions: for IC50: ATP 10 µM, read-out: Enzyme, IC50, µM PDGFR-b; for selectivity against PDGFR-b: relative to c-MET. The method, then: as §1

The target of the next data set is T4, c-Kit (Homo sapiens, UniProt P10721).
T4 construct: purchased Cell Signaling Technology, Inc
T4 sequence (P10721 26-976): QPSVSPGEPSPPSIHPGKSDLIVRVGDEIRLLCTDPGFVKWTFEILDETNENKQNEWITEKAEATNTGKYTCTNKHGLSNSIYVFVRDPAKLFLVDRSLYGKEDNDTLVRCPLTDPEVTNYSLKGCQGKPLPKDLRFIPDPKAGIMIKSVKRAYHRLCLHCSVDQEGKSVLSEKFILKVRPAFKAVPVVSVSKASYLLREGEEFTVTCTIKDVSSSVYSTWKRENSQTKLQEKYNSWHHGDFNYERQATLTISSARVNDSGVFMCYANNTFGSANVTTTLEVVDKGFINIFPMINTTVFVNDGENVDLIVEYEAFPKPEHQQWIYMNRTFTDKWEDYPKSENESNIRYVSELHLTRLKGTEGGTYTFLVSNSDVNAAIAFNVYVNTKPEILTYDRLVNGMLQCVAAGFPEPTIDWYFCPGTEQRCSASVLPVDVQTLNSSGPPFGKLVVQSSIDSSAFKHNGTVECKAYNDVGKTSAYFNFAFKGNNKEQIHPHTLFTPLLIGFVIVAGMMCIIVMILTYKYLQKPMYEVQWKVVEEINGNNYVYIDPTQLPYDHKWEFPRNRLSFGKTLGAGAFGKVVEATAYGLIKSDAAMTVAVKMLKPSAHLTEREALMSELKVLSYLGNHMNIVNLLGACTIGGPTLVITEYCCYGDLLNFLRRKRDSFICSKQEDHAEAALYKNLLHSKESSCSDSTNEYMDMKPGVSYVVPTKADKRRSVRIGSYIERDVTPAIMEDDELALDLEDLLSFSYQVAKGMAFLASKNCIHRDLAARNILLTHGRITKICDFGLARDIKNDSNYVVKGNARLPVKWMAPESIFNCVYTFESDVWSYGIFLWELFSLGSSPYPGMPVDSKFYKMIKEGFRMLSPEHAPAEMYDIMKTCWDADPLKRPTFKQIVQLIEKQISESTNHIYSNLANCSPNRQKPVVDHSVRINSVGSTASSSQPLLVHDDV
The data set is described as follows: In vitro kinase assay (HTScan c-Kit Kinase Assay Kit). It counts as biochemical. As to conditions: for IC50: ATP 10 µM, read-out: Enzyme, IC50, µM c-Kit; for selectivity against c-Kit: relative to c-MET. The method, then:
as §1

The target in another data set is T5, VEGFR-2 (Homo sapiens, UniProt P35968).
T5 construct: purchased Cell Signaling Technology, Inc
In words: In vitro kinase assay (HTScan VEGF Receptor 2 Kinase Assay Kit). It counts as biochemical. The settings on record: ATP 10 µM; read-out: Enzyme, IC50, µM VEGFR-2. The method, then:
In vitro kinase inhibitory ability was determined using HTScan MET Kinase Assay Kit, HTScan VEGF Receptor 2 Kinase Assay Kit, HTScan c-Kit Kinase Assay Kit, HTScan PDGF Receptor β Kinase Assay Kit and HTScan EGFR Kinase Assay Kit(purchased from Cell Signaling Technology, Inc. Danvers, MA, USA) by colorimetric ELISA assay according to the manufacturer’s instructions. Briefly, reaction cocktail containing recombinant human MET kinase or other kinases were incubated with various concentrations of tested compounds or DMSO (0.1%) for 5 min at room temperature, and then ATP/substrate peptide cocktail was added to the pre-incubated reaction cocktail. After incubation at room temperature for 30 min, the reaction was stopped and transferred to a 96-wellstreptavidin-coated plate, and incubated for 1 h at room temperature. Primary antibody (phosphorylated tyrosine monoclonal antibody (pTyr-100), 1:1000 in PBS/T with 1% bovine serum albumin (BSA)) was added into per well until the wells were washed thrice with PBS/T. After incubated at room temperature for 1 h, phosphorylation of the substrate was monitored with HRP-labeled anti-mouse IgG antibody (1:500 in PBS/T with 1% BSA), followed by a chromogenic reaction. Finally, the kinase assay was detected at 450 nm with microplate reader. The reaction processed with only DMSO (0.1%) served as a vehicle control. […]

In data set [4] the test system is Hep-G2 (human liver cancer). In words: Cell proliferative assay (MTT), Hep-G2. It counts as cell-based. As to conditions: Homo sapiens, HepG2, Hep-G2 cells, read-out: Proliferative Inhibition (IC50, µM) Hep-G2. The method, then: as §2
In data set [5] the test system is c-MET. Details: method as in PMID 19896842, PMID 24485123, PMID 23041435. As to conditions: cell-free assays; cited from earlier work.

Structures are written as SMILES.

T1 sequence (P00533 25-1210): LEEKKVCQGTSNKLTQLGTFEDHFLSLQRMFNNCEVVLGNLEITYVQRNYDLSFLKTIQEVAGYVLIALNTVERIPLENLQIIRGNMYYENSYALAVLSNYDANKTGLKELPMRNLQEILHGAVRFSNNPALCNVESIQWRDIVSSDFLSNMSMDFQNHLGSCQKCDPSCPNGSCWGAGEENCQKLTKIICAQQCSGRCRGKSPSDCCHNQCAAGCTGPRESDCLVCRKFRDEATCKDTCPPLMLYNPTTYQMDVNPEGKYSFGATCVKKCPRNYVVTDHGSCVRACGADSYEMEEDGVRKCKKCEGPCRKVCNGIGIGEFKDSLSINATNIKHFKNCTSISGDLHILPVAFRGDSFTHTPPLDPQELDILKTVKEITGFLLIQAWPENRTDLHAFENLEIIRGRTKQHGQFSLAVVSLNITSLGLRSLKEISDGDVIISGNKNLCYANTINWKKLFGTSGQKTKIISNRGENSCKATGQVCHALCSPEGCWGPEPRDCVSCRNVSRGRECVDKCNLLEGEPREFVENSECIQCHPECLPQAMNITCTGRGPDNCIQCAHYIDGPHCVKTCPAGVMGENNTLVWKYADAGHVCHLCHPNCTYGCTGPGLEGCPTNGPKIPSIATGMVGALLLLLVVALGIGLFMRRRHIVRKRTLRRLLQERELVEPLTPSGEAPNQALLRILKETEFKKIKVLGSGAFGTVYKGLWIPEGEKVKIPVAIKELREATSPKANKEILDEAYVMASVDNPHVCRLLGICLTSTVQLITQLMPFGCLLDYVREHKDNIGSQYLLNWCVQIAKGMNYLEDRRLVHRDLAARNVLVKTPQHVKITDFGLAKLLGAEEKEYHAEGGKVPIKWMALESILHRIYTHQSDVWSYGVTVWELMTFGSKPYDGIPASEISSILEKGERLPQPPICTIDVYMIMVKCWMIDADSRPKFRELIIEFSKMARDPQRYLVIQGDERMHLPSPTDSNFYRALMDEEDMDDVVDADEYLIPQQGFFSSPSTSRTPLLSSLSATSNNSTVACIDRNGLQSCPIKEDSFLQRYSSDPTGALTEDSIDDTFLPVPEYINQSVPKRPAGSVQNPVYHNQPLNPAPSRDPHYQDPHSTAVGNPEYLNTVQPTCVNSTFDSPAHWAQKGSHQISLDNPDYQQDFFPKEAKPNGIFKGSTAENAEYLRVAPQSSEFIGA

`COc1cc2ncnc(Oc3ccc(NC(=O)C4(C(=O)Nc5ccc(F)cc5)CC4)cc3F)c2cc1OC` [Compound 13b] gave a melting point of 180 to 182 °C. On EGFR, the IC50 is over 10 µM and the “selectivity against EGFR” value was over 500 fold. The IC50 in [1] amounted to 4.7 ± 0.11 µM. Also, the IC50 in data set [2] is 1.2 ± 0.21 µM. In addition, the IC50 at c-MET [3] was 0.02 µM. In addition, on PDGFR-b, the 50% inhibitory concentration (IC50) is over 10 µM and the “selectivity against PDGFR-b” value is recorded as over 500 fold. At c-Kit, the IC50 is 4.3 ± 0.11 µM and the “selectivity against c-Kit” value was determined as 215 fold. Further, the IC50 on VEGFR-2 turned out to be 0.1 ± 0.02 µM. The concentration for half-maximal inhibition (IC50) in data set [4] worked out at 12.8 ± 0.28 µM.

`CC(C)(C)OC(=O)N1CCc2c(sc3ncnc(Oc4ccc(NC(=O)C5(C(=O)Nc6ccc(F)cc6)CC5)cc4F)c23)C1` [Compound 13h, tert-butyl-4-{2-fluoro-4-(1-((4-fluorophenyl)carbamoyl)cyclopropanecarboxamido)phenoxy}-5,6-dihydropyrido(4’,3’:4,5)thieno(2,3-d)pyrimidine-7(8H)-carboxylate] registered a melting point of 171 to 173 °C. Moreover, on EGFR, the half-maximal inhibitory concentration (IC50) is over 10 µM and the “selectivity against EGFR” value is on record as over 200 fold. In addition, the IC50 in data set [1] is 4.6 ± 0.03 µM. For the same molecule, the IC50 in [2] is 2.8 ± 0.23 µM. Besides, on c-MET [3], the half-maximal inhibitory concentration (IC50) was found to be 0.05 ± 0.01 µM. Moreover, at PDGFR-b, the concentration for half-maximal inhibition (IC50) amounted to 7.2 ± 0.1 µM and the “selectivity against PDGFR-b” value is 144 fold. On c-Kit, the IC50 was found to be 5.2 ± 0.09 µM and the “selectivity against c-Kit” value was 104 fold. At VEGFR-2, the half-inhibitory concentration (IC50) is 0.25 ± 0.02 µM. For the same molecule, the concentration for half-maximal inhibition (IC50) in data set [4] was 1.7 ± 0.04 µM.

Take `CC(C)(C)OC(=O)N1CCc2c(sc3ncnc(Oc4ccc(NC(=O)C5(C(=O)Nc6ccc(F)cc6)CCC5)cc4F)c23)C1` [Compound 13i, tert-butyl-4-{2-fluoro-4-(1-((4-fluorophenyl)carbamoyl)cyclobutanecarboxamido)phenoxy}-5,6-dihydropyrido(4’,3’:4,5)thieno(2,3-d)pyrimidine-7(8H)-carboxylate]: the melting point fell in the range of 101 to 103 °C. The IC50 in data set [1] is 4.2 ± 0.31 µM. Further, the IC50 in [2] was found to be 21.7 ± 0.16 µM. For the same molecule, the half-maximal inhibitory concentration (IC50) at c-MET [3] was 0.25 ± 0.08 µM. Moreover, in data set [4], the IC50 worked out at 43.2 ± 0.26 µM.

On to `COc1cc2nccc(Oc3ccc(NC(=O)C4(C(=O)Nc5ccc(F)cc5)CC4)cc3)c2cc1OC` [XL184, Cabozantinib, reference compound], for which the IC50 was 0.0013 µM in the data set on c-MET [5] and 49.1 ± 0.25 µM in data set [4].
